PMC8878317, “Chemogenomics identifies acetyl-coenzyme A synthetase as a target for malaria treatment and prevention” (Cell Chemical Biology, 2022)
Read-outs that look alike come from different tables or passages of the source.

What was measured:
PfAcAS A597V = biological target: T1, PfAcAS A597V (Plasmodium falciparum, UniProt C6KTB4, A597V); assay: EnzChek assay, recombinant PfAcAS A597V; type: biochemical, P. falciparum
T1 sequence (C6KTB4 1-997 A597V): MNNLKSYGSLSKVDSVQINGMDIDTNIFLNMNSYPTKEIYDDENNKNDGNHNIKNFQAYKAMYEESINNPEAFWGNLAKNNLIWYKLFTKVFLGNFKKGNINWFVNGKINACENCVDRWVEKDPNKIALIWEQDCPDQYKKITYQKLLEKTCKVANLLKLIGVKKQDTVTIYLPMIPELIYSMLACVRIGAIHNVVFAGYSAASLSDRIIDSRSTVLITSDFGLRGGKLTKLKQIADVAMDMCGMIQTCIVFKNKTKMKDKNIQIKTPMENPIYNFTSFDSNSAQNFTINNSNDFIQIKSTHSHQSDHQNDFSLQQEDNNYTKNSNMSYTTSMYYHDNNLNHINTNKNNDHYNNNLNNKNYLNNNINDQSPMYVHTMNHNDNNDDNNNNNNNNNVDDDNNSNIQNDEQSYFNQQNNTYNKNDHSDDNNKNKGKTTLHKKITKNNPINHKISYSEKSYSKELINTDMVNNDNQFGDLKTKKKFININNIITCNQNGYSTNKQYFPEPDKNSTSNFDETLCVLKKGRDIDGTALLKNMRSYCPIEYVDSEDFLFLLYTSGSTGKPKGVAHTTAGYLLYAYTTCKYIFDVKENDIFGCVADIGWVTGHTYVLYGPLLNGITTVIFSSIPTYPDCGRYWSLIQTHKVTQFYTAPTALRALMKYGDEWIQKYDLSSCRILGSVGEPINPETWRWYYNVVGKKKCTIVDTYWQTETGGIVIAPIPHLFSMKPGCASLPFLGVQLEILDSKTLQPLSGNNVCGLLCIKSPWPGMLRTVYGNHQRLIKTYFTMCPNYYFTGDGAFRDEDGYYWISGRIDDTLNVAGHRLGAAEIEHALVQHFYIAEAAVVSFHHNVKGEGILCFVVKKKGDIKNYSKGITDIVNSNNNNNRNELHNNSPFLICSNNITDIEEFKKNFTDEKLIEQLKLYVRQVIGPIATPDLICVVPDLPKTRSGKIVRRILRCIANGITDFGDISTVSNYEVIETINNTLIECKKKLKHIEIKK
Procedure: Steady-state kinetic measurements were conducted at room temperature using a PheraStar plate reader (BMG). The first step of the reaction of PfAcAS, which produces inorganic pyrophosphate (PPi) that is converted to two molecules of inorganic phosphate using a pyrophosphatase enzyme, was continuously monitored using the EnzChek Phosphate Assay Kit, which gives an absorbance readout at 360 nm (Figure 4A) ([Webb, 1992]). […] By adding CoA, the reaction rapidly proceeds to the second step resulting in further release of pyrophosphate, making the EnzChek assay a suitable option to continuously monitor the activity of PfAcAS. Typical kinetic assays were carried out in clear, flat-bottom, polystyrene, 384-well plates (Greiner) in an 80 μL reaction volume containing 100 mM HEPES (pH7.4), 100 mM NaCl, 250 mM KCl, 50 mM MgCl2, 1 mM DTT, 0.004% Tween 20, 0.5 U/mL pyrophosphatase, 0.1 mM MESG, 0.5 U/mL PNP, 2 mM ATP, 2 mM acetate, 0.5 mM CoA and 5 nM recombinant PfAcAS WT or 10 nM recombinant PfAcAS A597V or T648M. Assays were performed by adding 40 μL of a 2-times concentrated substrate mixture including MESG to all wells, and the reactions started by adding 40 μL of a 2-times concentrated reaction mixture containing all other components. The reactions were carried out for 2 to 4 hr with absorbance readings at 360 nm every two to four minutes. Reaction rates were extracted from the linear phase of activity, usually using 10 to 20 points between times of 30 and 100 min of the reactions. Using a phosphate standard curve obtained under the same buffer conditions used for the PfAcAS reactions (Figure S5A), the rates were then converted to velocity per second, conversion of one nanomolar of phosphate, per nanomolar of enzyme, per second. The substrates Km values were determined by varying the concentration of one of the substrates at saturating concentration of the other two substrates. Steady-state data were fitted using the nonlinear, least-squares, curve-fitting programs of Sigma-Plot for Windows, version 14.0. Individual saturation curves were fit to Equation 1(Equation 1) v=VS/K+S where V is the maximal velocity, S is the substrate concentration and K is the Michaelis constant for the substrate (Km). Individual saturation curves displaying substrate inhibition were fit to Equation 2(Equation 2) v=VS/K+S×(1+S/Ks) where Ks is the substrate inhibition constant.
To determine the steady-state inhibition parameters and patterns associated with both inhibitors, PfAcAS activity was studied in the presence of variable concentrations of one substrate, ATP, acetate or CoA, fixed saturating concentration of the other two substrates (acetate and CoA, ATP and CoA, or ATP and acetate) and several fixed concentrations of inhibitor. Assay ready plates containing different concentrations of inhibitor were prepared using an Echo 550 acoustic dispenser (Labcyte Inc.). The assays were carried out as described in the previous section. […] For better comparison between both inhibitors and proteins, the ymin was fixed to zero and the ymax to 100. Inhibition data showing linear, competitive patterns in double-reciprocal plots were fit to Equation 4(Equation 4) v=VS/K(1+I/Ki)+S where Ki is the dissociation constant for the enzyme-inhibitor complex. Inhibition data showing linear, mixed inhibition patterns in double-reciprocal plots were fit to Equation 5(Equation 5) v=VS/K(1+I/Kis)+S(1+I/Kii) where Kis is the dissociation constant for the free enzyme-inhibitor complex and Kii is the dissociation constant for the enzyme-substrate-inhibitor complex. Inhibition data showing linear, uncompetitive patterns in double-reciprocal plots were fit to Equation 6(Equation 6) v=VS/K+S(1+I/Ki)

[1] = test system: P. falciparum control YFP cKD line; assay: cKD compound susceptibility assay, control YFP cKD line; type: cell-based; conditions: Plasmodium falciparum
Procedure: Synchronous ring-stage, aptamer-regulated PfAcAS and control parasite lines were resuspended in varying aTc concentrations (high = 50 nM, low = 1 nM, and no aTc) and distributed into the drug plate. DMSO carrier and chloroquine (200 nM) wells served as positive and negative controls.

[2] = test system: histone acetylation in P. falciparum 3D7-T648M; assay: Histone acetylation Western blot, drug-selected 3D7-T648M; type: cell-based; conditions: trophozoites, 3 h exposure
Procedure: Synchronous trophozoite-stage (24-32hr post-invasion) cultures at 3–5% parasitemia and 2% hematocrit in complete medium were exposed to test compounds for 3 hr at 37°C. […] DMSO was tested at 0.1% as the vehicle-only control. Following drug exposure, parasites were isolated via saponin lysis ice-cold 0.1% saponin in phosphate-buffered saline (PBS). Isolated parasites were washed 3x in ice-cold PBS containing protease inhibitor cocktail (cOmplete mini, Roche) and lysed in 1x Laemmli Sample Buffer (Biorad) with 5% beta-mercaptoethanol (Sigma-Aldrich). Samples were heated at 99°C for 10 min before centrifugation. Equal quantities of solute were separated on Protean TGX Precast Gels (4–20% gradient) in Tris-SDS-glycine buffer, transferred to nitrocellulose membrane by iblot (Invitrogen), and blocked for 1h in tris-buffered saline (TBS) with 5% skim milk powder. Blocked membranes were probed with antibodies recognising tetra-acetylated H4 (H4ac4, Sigma-Aldrich 06–866), H4K8ac (CST #2594), H3K9ac (CST #9649) or H3 (CST #4499), at 1:1000 dilution, and PfBiP ([Shonhai et al., 2007]) (at 1:5000 dilution) in 3% milk powder TBS with 0.1% Tween 20 at 4°C overnight and with 800CW goat α-rabbit IgG (Licor) at 1:10,000 dilution. Membranes were visualised using a Licor Odyssey CLX imaging system and quantified using ImageJ.

[3] = read-out: control cKD EC50 ± SD (nM) (0nM aTc)
[4] = read-out: control cKD EC50 ± SD (nM) (50nM aTc)

SMILES	Hill, AcAS A597V (PfAcAS A597V)	IC50 (PfAcAS A597V) [nM]	EC50 [1, 3] [nM]	EC50 [1, 4] [nM]	histone acetylation in 3D7-T648M parasite line [2]
CCN(CC)S(=O)(=O)c1ccc(Cl)c(C(=O)Nc2ccc3nc(C)sc3c2)c1 [MMV019721]	0.58 ± 0.05	6900 ± 1200	200 ± 61	210 ± 80	little to no measurable effect
O=C(NNC(=O)c1csnn1)c1ccc(Cl)cc1 [MMV084978]		> 100000	240 ± 29	230 ± 23	protection
